Data published in paper PMC10661773, “Cytotoxic pathways activated by multifunctional thiosemicarbazones targeting sigma-2 receptors in breast and lung carcinoma cells” (Pharmacological Reports, 2023).

How the values were obtained:
[1] = system: MCF7 and A549 cell lines; assay: Cytotoxic activity across the two tumor cell lines (MTT); type: cell-based; conditions: Homo sapiens; MCF7 and A549, MTT 48 h; read-out: EC50 range in the two tumor cell lines
Experimental: (§1) Human MCF7 breast adenocarcinoma (#HTB-22) and human A549 carcinoma (#CCL-85) cell lines, non-tumor human breast (MCF10A, #CRL-10317) and lung (BEAS-2B, #CRL-9482) cells were obtained from American Type Culture Collection (ATCC, Bethesda, MD). MCF7 cells were cultured in DMEM medium (Gibco Thermo Scientific, Waltham, MA; #10,565,018), A549 in HAM’s F12 medium (Gibco Thermo Scientific; #11,765,054), and BEAS-2B in RPMI-1640 medium (Gibco Thermo Scientific; # 61,870,010), all supplemented with 10% v/v fetal bovine serum (FBS; Sigma, St. Louis, MO; #F4135) and 1% v/v penicillin–streptomycin (Sigma; #P4458). MCF10A cells were cultured in DMEM/F12 medium (Gibco Thermo Scientific; #31,331,028) supplemented with 5% v/v horse serum (Sigma; #H1270) and 1% v/v penicillin–streptomycin, 20 ng/mL epidermal growth factor (Sigma, #E4127), 10 µg/mL insulin (Sigma, #I3536), […] hydrocortisone (Sigma, #H0888), 100 ng/mL cholera toxin (Sigma, #C8052). Cells were kept in a humidified incubator at 37 °C with 5% CO2.
Cell growth was determined using the MTT assay at 48 h. On day 1, 25,000 cells/well were seeded into 96-well plates in a volume of 100 μL. […] Formazan crystals were solubilized using 100 μl of DMSO/EtOH (1:1) and absorbance values at 570 and 630 nm were determined on the microplate reader Victor 3 from PerkinElmer Life Sciences (Waltham, MA).

[2] = system: MCF7 and A549 cells; assay: Whole cell ROS, DCFDA-AM probe; type: cell-based, human; conditions: MCF7 and A549, 2 h, 50 µM
Experimental: (§2) Intramitochondrial reactive oxygen species (ROS) were measured using the MitoSOX fluorescent probe (Invitrogen ThermoScientific, # M36008), according to the manufacturer’s instructions. For total ROS, cells were incubated with 5 µmol/L of 5-(and-6)-chlorometyl-20,70-dichlorodihydro-fluorescein diacetate-acetoxymethyl ester (DCFDA-AM, Sigma, #21,884), as described by Riganti et al. 2015 [21]. The results are expressed as nmoles/mg mitochondrial or cellular proteins, respectively.

[3] = system: A549 cells; assay: Mitochondrial depolarization, JC-1 staining; type: cell-based, human; conditions: A549, 2 h, 50 µM
Experimental: (§3) Staining with the JC-1 fluorescent probe (Biotium Inc., Freemont, CA; #30,001-30001-T) was performed as described in Riganti et al. 2015 [21]. Fluorescence units were used to calculate the percentage of green-fluorescent (i.e., depolarized) mitochondria vs red-fluorescent (i.e., polarized) mitochondria.

[4] = system: MCF7 cells; assay: Mitochondrial depolarization, JC-1 staining; type: cell-based, human; conditions: MCF7, 2 h, 50 µM
Experimental: as §3

[5] = system: A549 cells; assay: Mitochondrial ROS, MitoSOX staining; type: cell-based, human; conditions: A549, 2 h, 50 µM
Experimental: as §2

[6] = system: MCF7 cells; assay: Mitochondrial ROS, MitoSOX staining; type: cell-based, human; conditions: MCF7, 2 h, 50 µM
Experimental: as §2

[7] = system: MCF10A; assay: Cell viability, MTT assay at 48 h; type: cell-based; conditions: Homo sapiens, MCF-10A, read-out: EC50 ± SEM, normal cells MCF10A
Experimental: as §1
(§4) Cell growth was determined using the MTT assay at 48 h. On day 1, 25,000 cells/well were seeded into 96-well plates in a volume of 100 μL. On day 2, the various drug concentrations (1 μM–100 μM) were added. In all experiments, the various drug solvents (EtOH, Sigma, # E7148; DMSO, Sigma, # D8418) were added to each control to evaluate possible cytotoxicity of the solvent. After the established incubation time with drugs (48 h), MTT (0.5 mg/mL, Sigma # M2003) was added to each well, and after 3–4 h incubation at 37 °C, the supernatant was removed. Formazan crystals were solubilized using 100 μl of DMSO/EtOH (1:1) and absorbance values at 570 and 630 nm were determined on the microplate reader Victor 3 from PerkinElmer Life Sciences (Waltham, MA).

[8] = system: A549; assay: Cell viability, MTT assay at 48 h; type: cell-based; conditions: Homo sapiens, A549; MTT, 48 h; read-out: EC50 ± SEM, tumor cells A549
Experimental: as §1, §4

[9] = system: MCF7; assay: Cell viability, MTT assay at 48 h; type: cell-based; conditions: Homo sapiens, MCF7; MTT, 48 h; read-out: EC50 ± SEM, tumor cells MCF7
Experimental: as §1, §4

[10] = system: BEAS-2B; assay: Cell viability, MTT assay at 48 h; type: cell-based; conditions: Homo sapiens, read-out: EC50 ± SEM, normal cells BEAS-2B
Experimental: as §1, §4

CN(C)C(=S)N/N=C1\C(=O)N(CCCCN2CCC3(CC2)OCc2ccccc23)c2ccccc21 [FA4, (Z)-2-(1-(4-(3H-spiro[isobenzofuran-1,4′-piperidine]-1′-yl)butyl)-2-oxoindolin-3-ylidene)-N,N-dimethylhydrazinecarbothioamide]
EC50 [1]: 1.53 to 1.84 µM
ROS levels in whole cells (DCFDA-AM) [2]: higher
Mitochondrial depolarization (JC-1 staining) [3]: totally insensitive
Mitochondrial depolarization (JC-1 staining) [4]: strong depolarization
Mitochondrial ROS (MitoSOX) [5]: increased
Mitochondrial ROS (MitoSOX) [6]: increased
EC50 [7]: 4.31 ± 0.7 µM
EC50 [8]: 1.84 ± 0.4 µM
EC50 [9]: 1.53 ± 0.3 µM
EC50 [10]: 4.47 ± 1.1 µM
